US10265303B2, “Hyperphenylalaninemia and treatments thereof” (BERGEN TEKNOLOGIOVERFØRING AS, priority 2015, dated 2019)

Key:
[1] = molecular target: full-length tetrameric wild-type hPAH (Homo sapiens, UniProt P00439); conditions: 137.8 μM compound, 2% DMSO
Description: (§1) Tetrameric full length wild-type (WT) human PAH (hPAH) and truncated ΔN102/ΔC24-hPAH corresponding to a dimeric form containing the catalytic domain of known crystal structure were recombinantly expressed in E. coli fused to maltose-binding protein and purified by amylose-affinity chromatography and further cleaved and isolated to homogeneity essentially as described [Martinez, A., et al., Biochem. J., 1995. 306: p. 589-597]. Protein concentration was measured in a NanoDrop spectrophotometer (Thermo Scientific) using the absorbance at 280 nm and the theoretical molar extinction coefficient of 49780 M^−1 cm^−1 for WT-PAH and 46675 M^−1 cm^−1 for ΔN102/ΔC24-hPAH.
(§2) PAH activity on isolated recombinant enzymes was measured at 37° C. for 1 min with quantification of L-Tyr formed by HPLC with fluorimetric detection, essentially as described [Martinez et al. supra] with the indicated concentrations of the compounds. […] After an equilibration of the plate at 37° C. for 3 min the reaction was initiated by adding 75 μM BH4 (Schircks Laboratories, Jona, Switzerland) in 5 mM DTT and stopped after 1 min by adding 50 μl of 2% (v/v) acetic acid in ethanol (all concentrations referred to a final reaction volume of 50 μl) prior to determination of L-Tyr produced by HPLC with fluorimetric detection (γexcitation=274 nm; γemission=304 nm). Controls with 2% DMSO without compound were routinely assayed as references for data processing. A BRAVO automated liquid handling platform was used in these assays.
(§3) The steady-state kinetic parameters were estimated with 0.25 μg hPAH (0.965 μM subunit), 1 mM L-Phe and different BH4 concentrations in the range 0-400 μM, and with 100 μM BH4 and L-Phe (0-1 mM). The saturation curves were fitted to hyperbolic (for BH4) or sigmoidal (for L-Phe) kinetic models with SigmaPlot v. 9.0. (SPSS). Kinetic parameters are presented as mean±SEM obtained from nonlinear regression analysis.

[2] = molecular target: truncated dimeric hPAH ΔN102/ΔC24 (Homo sapiens, UniProt P00439); conditions: 137.8 μM compound, 2% DMSO, 1 mM L-Phe
Description: as §1, §2, §3

[3] = molecular target: tryptophan hydroxylase 2 (TPH2) (Homo sapiens, UniProt Q8IWU9); conditions: 68.9 μM, respect to 2% DMSO controls
[4] = molecular target: T1, human wild-type PAH (Homo sapiens, UniProt P00439); assay: PAH immunoreactive protein level (Western blot) in HEK293 cells permanently expressing human wild-type PAH; format: cell-based; conditions: 0.04 mg/ml (average 116.7 μM), 1% DMSO, 8 h
T1 construct: expressed in transfected cells
T1 sequence (P00439 1-452): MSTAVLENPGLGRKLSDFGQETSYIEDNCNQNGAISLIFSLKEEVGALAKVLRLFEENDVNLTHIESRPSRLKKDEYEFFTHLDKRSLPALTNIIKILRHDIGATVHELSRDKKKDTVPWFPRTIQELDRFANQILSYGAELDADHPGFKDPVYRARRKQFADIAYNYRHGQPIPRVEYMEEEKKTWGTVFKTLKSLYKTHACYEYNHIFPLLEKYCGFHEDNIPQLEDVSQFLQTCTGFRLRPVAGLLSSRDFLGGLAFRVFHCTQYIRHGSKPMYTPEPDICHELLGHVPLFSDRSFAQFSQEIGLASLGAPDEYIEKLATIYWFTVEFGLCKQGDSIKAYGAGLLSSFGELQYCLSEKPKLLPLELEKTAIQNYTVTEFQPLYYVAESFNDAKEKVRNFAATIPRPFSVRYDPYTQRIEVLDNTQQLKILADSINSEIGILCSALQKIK
Description: Human embryonic kidney cells (HEK293; Life Technologies™) permanently expressing WT-hPAH, prepared with the Flp-In system (Life Technologies™) were kindly provided by Per Knappskog, Haukeland University Hospital. About 1 million cells were grown in DMEM medium containing 4.5 g/l glucose, 10% (v/v) fetal calf serum, 0.25 mg/ml gentamycine, 2 mM L-glutamine and 50 μg/ml hygromycin B, and after 24 h medium was changed and the test compounds were added at a concentration of 0.02 mg/ml (1% DMSO). Eight hours later, the cells were harvested, and the pellets frozen in dry ice and stored at −80° C. […] To prepare the cell extracts, the frozen cell pellets were thawed in TBS (+protease inhibitor) buffer and cells were homogenized with 0.1% TX-100, incubated 15 minutes at 4° C. and extracts were clarified by centrifugation 20000 g for 15 min at 4° C. Protein concentrations were normalized using a Direct Detect Spectrometer (Merck Millipore).
The 7 selected compounds as well as the first generation pharmacological chaperones (Compounds III and IV) were further analyzed in the presence and absence of BH2 (200 μM), added as precursor of BH4, to account for additive effects. A higher concentration of compound was also used 0.04 mg/ml (average of 116.7 μM) at otherwise same experimental conditions.

Sequence of tryptophan hydroxylase 2 (TPH2) (Q8IWU9 whole entry, species assumed): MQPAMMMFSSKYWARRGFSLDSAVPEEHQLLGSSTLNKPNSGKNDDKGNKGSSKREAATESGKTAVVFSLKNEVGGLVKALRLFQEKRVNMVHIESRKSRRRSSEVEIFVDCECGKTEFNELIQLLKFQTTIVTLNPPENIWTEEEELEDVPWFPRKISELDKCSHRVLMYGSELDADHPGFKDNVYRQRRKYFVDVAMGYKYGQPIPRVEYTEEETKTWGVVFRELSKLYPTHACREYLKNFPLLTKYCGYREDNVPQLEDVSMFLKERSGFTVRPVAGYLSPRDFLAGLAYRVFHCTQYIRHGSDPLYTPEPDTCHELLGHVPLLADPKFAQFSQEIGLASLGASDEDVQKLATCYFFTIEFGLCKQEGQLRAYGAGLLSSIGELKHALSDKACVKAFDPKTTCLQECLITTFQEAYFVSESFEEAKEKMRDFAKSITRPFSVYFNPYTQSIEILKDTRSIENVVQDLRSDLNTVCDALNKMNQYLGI

COc1cc(Cc2cnc(N)nc2N)cc(OC)c1OC [c53, trimethoprim]
effect on kinetic parameters for L-Phe (Vmax and S0.5) ([1]; 100 μM BH4): does not affect the kinetic parameters for the substrate | effect on Vmax and Km for BH4 ([1]; 1 mM L-Phe): decreased Vmax and Km for the cofactor | mode of inhibition towards BH4 ([1]; 1 mM L-Phe): uncompetitive inhibition | effect on Vmax and Km for BH4 [2]: did not change the Vmax or Km-values for BH4 | effect on TPH2 activity [3]: did not have large effect | effect on PAH protein (FIG. 1A) [4]: very large stimulating effect
